Measured values reported in patent US12540148B2, “Lipophosphonoxins, their preparation and use” (USTAV ORGANICKE CHEMIE A BIOCHEMIE AV CR, V. V. I., priority 2019, dated 2026).
Structures can show the parent of a compound that is named as a salt. Where two headings read alike, the source gives them in different places.

Assays:
Format in all cases: cell-based
[1] = test system: Candida albicans ATCC 90028 = CCM 8161; experiment: MIC, microdilution method
[2] = test system: Escherichia coli ATCC 25922 = CCM 3954; experiment: MIC, microdilution method
Procedure: (§1) Disposable microtiter plates are used for testing. Samples are dissolved in infusion medium from brain and heart (BHI, HiMedia Laboraties Pvt. Ltd., Czech Republic) and Mueller-Hinton broth (HiMedia Laboraties, see above) to a final concentration ranging from 200 μg/ml to 1.5625 μg/ml. Plates are inoculated with a standard amount of test bacteria—the density of the inoculum in the well corresponds to 10^5-6 CFU/ml (colony forming units/ml, i.e. the number of viable bacterial cells/ml). MIC values are read after 24/48 hours of incubation at 37° C. as the minimum inhibitory concentration of the test substance at which bacterial growth is inhibited. The minimum bactericidal concentration (MBC) is characterized as the minimum concentration of the sample required to achieve irreversible inhibition, i.e. to kill the bacteria after a defined incubation period. MBC is determined by the inoculation method. Using an applicator, 10 μl from the well of a microtiter plate with a defined concentration of the test substance is taken to inoculate the surface of blood agar (Trios, Czech Republic). MBC is determined as the lowest concentration that inhibits the visible growth of the bacterium used on agar.

[3] = test system: Pseudomonas aeruginosa ATCC 27853 = CCM 3955; experiment: MIC, microdilution method
Procedure: as §1

[4] = test system: Enterococcus faecalis ATCC 29212 = CCM 4224; experiment: MIC, microdilution method
Procedure: as §1

Pseudomonas aeruginosa R = experiment: MIC, microdilution method
Procedure: as §1

[5] = test system: Enterococcus faecium 419/ANA; experiment: MIC, microdilution method
Procedure: as §1

[6] = test system: Staphylococcus epidermidis CCM 7221; experiment: MIC, microdilution method
Procedure: as §1

[7] = test system: Staphylococcus aureus 4591; experiment: MIC, microdilution method
Procedure: as §1

Escherichia coli CE5556 = experiment: MIC, microdilution method
Procedure: as §1

[8] = test system: Staphylococcus aureus ATCC 29213 = CCM 4223; experiment: MIC, microdilution method
Procedure: as §1

erythrocytes = experiment: Haemolytic activity of soluble samples
Procedure: Blood from three donors is mixed and centrifuged (10 min, 1000 g, 4° C.). The erythrocytes obtained are washed three times with NaCl solution (150 mmol·l^−1) and then used for experiments. Sample stock solutions are prepared in DMSO so that the final concentration of DMSO in NaCl is 0.5% (v/v). NaCl solution with the appropriate volume of DMSO serves as the negative control. 1% Triton-X100 is the positive control. The erythrocytes obtained are diluted to 2% with NaCl solution and pipetted into Eppendorf tubes (250 μl) with constant stirring. Samples and positive and negative controls are added to the erythrocytes prepared in this way and incubated (3 hours, 37° C.). The tubes are stirred during the incubation. After centrifugation (5 min, 1000 g), haemolytic activity is monitored by haemoglobin determination. The HC50 value is calculated from the measured absorbance values. The test is performed in triplets in three independent replicates. Iron Fe^2+ in haemoglobin is oxidized with potassium ferricyanide to iron Fe^3+ in methaemoglobin, which produces stable cyanomethaemoglobin with potassium cyanide, the concentration of which is determined spectrophotometrically. After the incubation of the erythrocytes with the substances, the cells are centrifuged (5 min, 1000 g), then Drabkin's solution (200 μl) is added to the supernatant (40 μl) and after incubation (10 min), the absorbance at 540 nm is measured.

Enterobacter kobei 3683 = experiment: MIC, microdilution method
Procedure: as §1

[9] = Staphylococcus epidermidis, CCM7221

| Compound | MIC ([1]; Candida albicans) | MIC ([2]; Escherichia coli) | MIC ([3]; Pseudomonas aeruginosa) | MIC ([4]; Enterococcus faecalis) | MIC (Pseudomonas aeruginosa R; Pseudomonas aeruginosa) | MIC ([5]; Enterococcus faecium, 419/ANA) | MIC [6, 9] | MIC ([7]; Staphylococcus aureus, 4591) | MIC (Escherichia coli CE5556; Escherichia coli, CE5556) | MIC ([8]; Staphylococcus aureus) | HC50 ± SD (erythrocytes) | MIC (Enterobacter kobei 3683; Enterobacter kobei, 3683) | also measured |
| --- | --- | --- | --- | --- | --- | --- | --- | --- | --- | --- | --- | --- | --- |
| CCCC/C=C\CCOP(=O)(CCN(CCCN)CCCN)OCCCCCOP(=O)(CCN(CCCN)CCCN)OCC/C=C\CCCC (centres unmarked) [Example 58, Di((Z)-oct-3-en-1-yl) pentane-1,5-diyl bis((2-(bis(3-aminopropyl)amino)ethyl)-phosphonate) hexahydrochloride] | 64 µg/mL | 8 µg/mL | 32 µg/mL | 2 µg/mL | 32 µg/mL | 4 µg/mL | 2 µg/mL | 128 µg/mL | 4 µg/mL | 0.5 µg/mL | 70 | – | – |
| CC(C)COP(=O)(CCN(CCCN)CCCN)OCCCCCCCCCCCCCCOP(=O)(CCN(CCCN)CCCN)OCC(C)C (centres unmarked) [Example 51, Tetradecane-1,14-diyl diisobutyl bis((2-(bis(3-aminopropyl)amino)ethyl)-phosphonate) hexahydrochloride] | 32 µg/mL | 16 µg/mL | 4 µg/mL | 4 µg/mL | 4 µg/mL | 16 µg/mL | 0.5 µg/mL | 2 µg/mL | 32 µg/mL | 2 µg/mL | >100 | 64 µg/mL | – |
| Dibutyl dodecane-1,12-diyl bis((2-(bis(3-aminopropyl)amino)ethyl)-phosphonate) hexahydrochloride [Example 47] | – | – | – | – | – | – | – | – | – | – | >100 | – | MIC [1]: 16 µg/mL; MIC [2]: 16 µg/mL; MIC (Enterobacter kobei 3683): 128 µg/mL; MIC [3]: 4 µg/mL; MIC [4]: 2 µg/mL; MIC (Pseudomonas aeruginosa R; 24/48 hours at 37° C.): 4 µg/mL; MIC [5]: 16 µg/mL; MIC [6]: 0.5 µg/mL; MIC [7]: 1 µg/mL; MIC (Escherichia coli CE5556): 32 µg/mL; MIC [8]: 1 µg/mL |
| CCCCCOP(=O)(CCN(CCCN)CCCN)OCCCCCCCCCCCCOP(=O)(CCN(CCCN)CCCN)OCCCCC (centres unmarked) [Example 48, Dodecane-1,12-diyl dipentyl bis((2-(bis(3-aminopropyl)amino)ethyl)-phosphonate) hexahydrochloride] | 2 µg/mL | 1 µg/mL | 2 µg/mL | 1 µg/mL | 2 µg/mL | 1 µg/mL | 0.5 µg/mL | 1 µg/mL | 1 µg/mL | 1 µg/mL | 4 | 1 µg/mL | – |
| CC(C)COP(=O)(CCN(CCCN)CCCN)OCCCCCCCCCCCCOP(=O)(CCN(CCCN)CCCN)OCC(C)C (centres unmarked) [Example 46, Dodecane-1,12-diyl diisobutyl bis((2-(bis(3-aminopropyl)amino)ethyl)-phosphonate) hexahydrochloride] | 64 µg/mL | 128 µg/mL | 32 µg/mL | 32 µg/mL | 16 µg/mL | > 128 µg/mL | 1 µg/mL | 4 µg/mL | > 128 µg/mL | 4 µg/mL | >100 | > 128 µg/mL | – |
| CCCC/C=C\CCOP(=O)(CCN(CCCN)CCCN)OCCCCCCOP(=O)(CCN(CCCN)CCCN)OCC/C=C\CCCC (centres unmarked) [Example 57, Hexane-1,6-diyl di((Z)-oct-3-en-1-yl) bis((2-(bis(3-aminopropyl)amino)-ethyl)phosphonate) hexahydrochloride] | 64 µg/mL | 2 µg/mL | 16 µg/mL | 16 µg/mL | 16 µg/mL | 64 µg/mL | 0.5 µg/mL | 1 µg/mL | 2 µg/mL | 1 µg/mL | 34.8 | – | – |
| Dodecan-1,10-diyl dioctyl bis((2-(bis(3-aminopropyl)amino)ethyl)-phosphonate) tetrahydrochloride [Example 49] | – | – | – | – | – | – | – | – | – | – | >100 | – | MIC [1]: 8 µg/mL; MIC (Enterobacter kobei 3683): 128 µg/mL; MIC [3]: 8 µg/mL; MIC [4]: 4 µg/mL; MIC (Pseudomonas aeruginosa R; 24/48 hours at 37° C.): 8 µg/mL; MIC [5]: 32 µg/mL; MIC [6]: 0.5 µg/mL; MIC [7]: 4 µg/mL; MIC (Escherichia coli CE5556): 16 µg/mL |
